Data from paper PMC3322975 (The Journal of Biological Chemistry, 2012).

Molecular target: Kv7.2/7.3 M-channel (Homo sapiens, UniProt O43525+O43526)
Test: single-channel recording, excised inside-out patch
Assay type: cell-based

Sequence of Kv7.2/7.3 M-channel (O43526 whole entry): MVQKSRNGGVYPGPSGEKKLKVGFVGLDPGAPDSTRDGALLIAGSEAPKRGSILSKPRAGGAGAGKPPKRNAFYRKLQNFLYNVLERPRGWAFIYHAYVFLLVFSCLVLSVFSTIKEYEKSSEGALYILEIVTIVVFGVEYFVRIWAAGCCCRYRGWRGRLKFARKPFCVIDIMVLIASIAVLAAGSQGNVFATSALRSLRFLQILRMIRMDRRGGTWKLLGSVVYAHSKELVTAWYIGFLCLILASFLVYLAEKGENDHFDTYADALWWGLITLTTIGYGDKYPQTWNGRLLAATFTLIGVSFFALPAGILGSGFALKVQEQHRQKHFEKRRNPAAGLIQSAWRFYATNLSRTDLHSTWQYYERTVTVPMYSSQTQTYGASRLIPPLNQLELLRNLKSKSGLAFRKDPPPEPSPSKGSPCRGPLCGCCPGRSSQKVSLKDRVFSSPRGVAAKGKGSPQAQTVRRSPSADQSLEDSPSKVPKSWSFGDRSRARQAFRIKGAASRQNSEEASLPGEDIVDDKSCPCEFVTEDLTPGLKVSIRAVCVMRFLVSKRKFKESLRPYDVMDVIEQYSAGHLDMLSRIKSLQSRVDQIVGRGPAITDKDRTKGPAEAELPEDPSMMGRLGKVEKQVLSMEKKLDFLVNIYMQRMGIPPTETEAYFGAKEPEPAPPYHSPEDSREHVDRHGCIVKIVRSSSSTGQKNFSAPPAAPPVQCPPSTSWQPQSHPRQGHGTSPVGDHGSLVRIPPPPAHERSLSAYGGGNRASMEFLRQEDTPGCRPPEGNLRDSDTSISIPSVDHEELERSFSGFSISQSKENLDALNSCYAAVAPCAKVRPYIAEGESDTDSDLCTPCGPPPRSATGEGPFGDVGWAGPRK
Sequence of Kv7.2/7.3 M-channel (O43525 whole entry): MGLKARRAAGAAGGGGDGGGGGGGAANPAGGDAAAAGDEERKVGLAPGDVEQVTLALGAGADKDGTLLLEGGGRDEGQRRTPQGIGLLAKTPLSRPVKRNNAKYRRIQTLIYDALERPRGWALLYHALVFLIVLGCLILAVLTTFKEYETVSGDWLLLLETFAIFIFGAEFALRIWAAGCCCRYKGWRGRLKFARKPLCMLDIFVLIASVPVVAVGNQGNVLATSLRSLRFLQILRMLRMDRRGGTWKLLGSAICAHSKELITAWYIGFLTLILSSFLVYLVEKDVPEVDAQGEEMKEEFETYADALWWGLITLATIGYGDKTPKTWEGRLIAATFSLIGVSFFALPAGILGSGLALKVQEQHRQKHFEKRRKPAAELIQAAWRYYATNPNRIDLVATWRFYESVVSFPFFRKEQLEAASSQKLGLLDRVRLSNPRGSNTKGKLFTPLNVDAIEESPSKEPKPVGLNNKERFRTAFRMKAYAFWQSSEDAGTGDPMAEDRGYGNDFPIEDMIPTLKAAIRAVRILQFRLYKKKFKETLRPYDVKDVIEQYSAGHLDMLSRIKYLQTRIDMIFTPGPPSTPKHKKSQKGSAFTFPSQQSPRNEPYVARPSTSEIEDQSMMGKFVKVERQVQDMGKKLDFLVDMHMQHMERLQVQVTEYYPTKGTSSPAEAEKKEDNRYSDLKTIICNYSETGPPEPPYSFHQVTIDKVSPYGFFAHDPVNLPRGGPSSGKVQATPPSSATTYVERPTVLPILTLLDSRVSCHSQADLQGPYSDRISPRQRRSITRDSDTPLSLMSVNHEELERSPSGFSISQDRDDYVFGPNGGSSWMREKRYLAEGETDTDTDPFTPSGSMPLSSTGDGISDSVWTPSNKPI

| Compound | EC50 |
| --- | --- |
| CCCCCCCCCCCCC/C=C/[C@@H](O)[C@@H](N)COP(=O)(O)O [S-1-P] | 3200 ± 600 nM |
| CCCCCCCCc1ccc(CCC(N)(CO)COP(=O)(O)O)cc1 (stereo not drawn) [FTY720-P] | 500 ± 1 nM |
| CCCCCCCC/C=C\CCCCCCCC(=O)OC[C@@H](O)COP(=O)(O)O [LPA] | 1500 ± 400 nM |

Next, values leading:

| EC50 | Compound |
| --- | --- |
| 1100 ± 200 nM | CCCCCCCC(=O)OC[C@H](COP(=O)(O)O[C@H]1[C@H](O)[C@@H](OP(=O)(O)O)[C@H](OP(=O)(O)O)[C@@H](OP(=O)(O)O)[C@H]1O)OC(=O)CCCCCCC [diC8PI(3,4,5)P3] |
| 1700 ± 300 nM | CCCCCCCC(=O)OC[C@H](COP(=O)(O)O[C@H]1[C@H](O)[C@@H](O)[C@H](OP(=O)(O)O)[C@@H](O)[C@H]1O)OC(=O)CCCCCCC [diC8PI(4)P] |
| 1100 ± 100 nM | CCCCCCCC(=O)OC[C@H](COP(=O)(O)O[C@@H]1[C@H](O)[C@H](O)[C@@H](OP(=O)(O)O)[C@H](OP(=O)(O)O)[C@H]1O)OC(=O)CCCCCCC [diC8PI(4,5)P2] |
